The results in this text go back to PubChem BioAssay AID588657 (The Scripps Research Institute Molecular Screening Center, 2011).

Calls of active or inactive are those of the source.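 How the source made its calls: active means EGR1 protein level shifted at least 30% up or down versus solvent-only cells; inactive means shift under 30% either way.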

The target in this test is Early growth response protein 1 (Homo sapiens) (UniProt P18146). Briefly: EGR1 protein level change in HT29 cells, late-stage follow-up, counter-screen for KLF5 inhibitor project, cell-based, HT29 colorectal carcinoma, chemiluminescent western blot (AID 588657). The conditions noted are these: 24 h, at 10 µM, stronger effect = higher value. A general note: The purpose of a counterscreen is to sort out artefacts and off-target activity.
Chain of Early growth response protein 1 (Homo sapiens) (P18146 whole entry, looked up): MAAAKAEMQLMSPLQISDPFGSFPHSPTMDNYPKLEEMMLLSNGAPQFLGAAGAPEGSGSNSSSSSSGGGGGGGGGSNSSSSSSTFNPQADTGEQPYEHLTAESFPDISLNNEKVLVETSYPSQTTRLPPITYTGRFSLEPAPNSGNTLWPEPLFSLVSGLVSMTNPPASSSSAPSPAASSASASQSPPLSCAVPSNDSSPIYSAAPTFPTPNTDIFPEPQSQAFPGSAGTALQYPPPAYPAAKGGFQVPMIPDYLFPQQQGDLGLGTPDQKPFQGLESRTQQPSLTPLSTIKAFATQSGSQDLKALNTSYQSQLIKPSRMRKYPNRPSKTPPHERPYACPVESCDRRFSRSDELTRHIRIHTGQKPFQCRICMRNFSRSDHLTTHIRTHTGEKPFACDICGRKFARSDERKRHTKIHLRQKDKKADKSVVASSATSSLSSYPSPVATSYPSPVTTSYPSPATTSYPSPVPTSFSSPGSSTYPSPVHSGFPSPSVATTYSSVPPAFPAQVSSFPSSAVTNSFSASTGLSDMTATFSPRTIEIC
Turning to `CN(C(=O)COC(=O)/C=C/c1cccc([N+](=O)[O-])c1)C1CCS(=O)(=O)C1` (stereo not drawn), the inhibition (commonly the relative decrease from the control value, in per cent) is 29.7%.
Under `CN(C(=O)CNC(=O)/C=C/c1cccc(Cl)c1)C1CCS(=O)(=O)C1` (stereo not drawn) stands 9.34% (inactive).
Under `CN(C(=O)CNC(=O)/C=C/c1cccc(Cl)c1)C1CCS(=O)(=O)CC1` stands 64.5%.
